Measurements: a melting point compilation (Tetko et al.; mined from patent text by program, amines drawn as free bases though some values may be those of a salt)

Row | melting point [°C] | Structure (SMILES)
1 | 87 to 90 | CCCCCS(=O)(=O)NCCCc1ccc(OCCOC)cc1Oc1ncc(C(F)(F)F)cc1Cl
2 | 100 to 105 | COc1cc(C(C)=O)ccc1OCCCN1CCCC(C(O)(c2ccc(F)cc2)c2ccc(F)cc2)C1 (stereo not given)
3 | 158 to 159 | CC1NC(=O)OC1c1ccc(C(F)(F)F)cc1 (stereo not given)
4 | 128 to 130 | N#Cc1ccc(-c2ccc(Cl)cc2)cc1
5 | 50 to 52 | CCN(CC)C(=O)c1cccs1
6 | 113 to 114 | CC(C)[C@@H](CO)C[C@H](O)[C@H](CC1CCCCC1)NC(=O)OCc1ccccc1
7 | 136 | Nc1ccc(N=Nc2ccc([N+](=O)[O-])c(C(F)(F)F)c2)cc1
8 | 131 to 132 | O=S1(=O)C[C@H](O)[C@H](O)CS1
9 | 153 to 155 | CCCOc1ccc(C2=NN(C(=O)Nc3ccc(OC(F)(F)F)cc3)CC2N(C)C(=O)OC)cc1 (stereo not given)
10 | 175 to 179 | CCOCc1nc2c(N)nc3ccccc3c2n1CCCCCS(=O)(=O)NC
11 | 172 to 174 | O=C(C1CCN(c2c(Cl)cncc2Cl)CC1)N1CCOCC1
12 | 142 to 143 | CSc1ccc(Nc2cc(-c3nnc(C(C)(C)OC(C)=O)o3)ccn2)cc1
13 | 162 | CC#CCOc1cc(Oc2ccc(C#N)cc2)ncn1
14 | 103 to 105 | CCCc1c(OCCCCc2cccc(O)c2O)ccc(C(C)=O)c1O
15 | 63 to 65 | CN(CCCS(=O)CCCC(F)(F)C(F)(F)F)CCOc1ccc(C2=C(c3ccccc3)CCCc3cc(O)ccc32)cc1 (stereo not given)
16 | 140 to 141 | O=CNC1=NN(c2ccccc2)CC1
17 | 142 | CN1CCC(OC2c3ccccc3CCn3cc(-c4ccc(Br)cc4)nc32)CC1 (stereo not given)
18 | 179 | CC1(C)CCCC(=Cc2ccc(Cl)cc2)C1(O)Cn1cncn1 (stereo not given)
19 | 220 to 225 | Cn1cc(C(=O)Nc2nc(-c3ccco3)c(C(=O)c3ccccc3)s2)ccc1=O
20 | 217 to 219 | Cc1ccc2c(n1)Nc1cc(C)c(C)cc1N(C)C2=O
21 | 164 to 165 | Cc1ccc(C(=O)OCCN(C)C)cc1-n1c(C)cc(OCc2ccccc2CNC(=O)Nc2cc(C(C)(C)C)nn2-c2cccc(OCCO)c2)c(Cl)c1=O
22 | > 250 | O=C1Nc2ncccc2C12COc1cc3c(cc12)OCCO3 (stereo not given)
23 | 191 to 193 | CC(CC(=O)NCc1ccccc1)n1c(C(F)(F)F)nc2cc(F)c(-n3c(=O)cc(C(F)(F)F)n(C)c3=O)cc21 (stereo not given)
24 | 136 to 138 | CS(=O)(=O)c1ccc(Oc2ccc(Oc3ccccc3)cc2)nc1

Row | melting point [°C] | Structure (SMILES)
25 | 99 to 100 | FCCOc1cccc(CBr)c1OCCF
26 | 55 to 56 | CCCCCC(=O)N1C(CCCCC)NC(=O)CC1C(=O)O (stereo not given)
27 | 82 to 83 | CCOCCOc1ccc(COc2cnn(C(C)(C)C)c(=O)c2Cl)cc1
28 | 103 to 104 | CC(=O)Oc1c(C)cc(N(C)C(=O)OC(C)(C)C)c(C)c1C
29 | 133 to 134 | CSc1ccc(C(=O)C=Cc2ccncc2)cc1
30 | 248 | CC1(C)CC(O)C(C)(C)c2cc(/C=C/c3ccc(C(=O)O)cc3)c(Cn3cccn3)cc21 (stereo not given)
31 | 139 to 140 | O=C1NC(C(=O)NCCO[N+](=O)[O-])C(c2ccccc2)S1 (stereo not given)
32 | 221 to 222 | Cc1cc(S)n2nc(C(=O)NN)nc2n1
33 | 153 to 155 | NC(=O)C1CCc2sc3ccccc3c2C1 (stereo not given)
34 | 104 to 106 | c1ccc(CSc2nc3ncccn3n2)cc1
35 | 194 | CCOC(=O)c1cc(Oc2ccc3c(C(=O)Nc4cccc(C(F)(F)F)c4)cccc3c2)ncn1
36 | 142 to 143 | O=C1OCCC1Nc1ccc(Nc2ccccc2)cc1 (stereo not given)
37 | 124 to 125 | CCOc1nn(-c2ccc(C(F)(F)F)cn2)cc1CCCOc1ccc(CCC(=O)O)cc1O
38 | 220 to 225 | CNc1nc(-c2ccccc2)c(-c2nc3ccccc3c(=O)n2-c2ccccc2C)s1
39 | 166 to 168 | COc1cc2c(cc1C(F)(F)F)N(C(=O)Nc1ccccc1CCN(C)C)CC2
40 | 63 | COC(=O)c1ccc(Cc2cc3cc(C(F)(F)F)ccc3n2S(=O)(=O)c2ccc3c(c2)N(C)CCO3)cc1
41 | 141 to 143 | O=C(O)C(=O)c1ccc(OCC(=O)c2cccc3ccccc23)cc1
42 | 154 to 155 | COc1cc(N2CCN(Cc3ccccc3)CC2)c2nccc(C)c2c1
43 | 98 to 100 | CC(=O)N1CC(CCN2CCC(c3ccc(C(F)(F)F)cc3)CC2)c2ccccc21 (stereo not given)
44 | 160 | Cc1c(SCC(=O)N2CCOC(CN(C)C)C2)ccnc1CSc1nc2ccccc2[nH]1 (stereo not given)
45 | 320 to 322 | O=C1c2ccccc2C(c2ccc(O)cc2)(c2ccc(O)cc2)c2ccccc21
46 | 75 to 78 | CCC(Oc1cc(N)c(Cl)cc1C(=O)NCCN(CC)CC)C(C)=O (stereo not given)
47 | 212 to 216 | COc1ccc(N2CCOCC2)c2sc(NC(=O)C[C@H]3CC[C@@H](O)CC3)nc12
48 | 146 to 148 | Nc1cc(OCC2CCCCO2)c(C(=O)O)cc1Cl (stereo not given)

Row | melting point [°C] | Structure (SMILES)
49 | 209 to 211 | O=C(Cc1noc2ccccc12)NS(=O)(=O)c1ccc(Cl)cc1
50 | 279 to 281 | O=C(O)c1ccccc1S(=O)c1cc(Cl)ccc1C(=O)O (stereo not given)
51 | 118 to 121 | CC(C)NC(=O)CCC(=O)c1ccccc1
52 | 115 to 117 | CC=CC1Nc2ccccc2-c2c([N+](=O)[O-])cnn21 (stereo not given)
53 | 156 to 158 | COC(=O)c1ccc(CC(=O)Nc2cc(Cl)ccc2N2CCCCC2)cc1
54 | 90 to 91 | N#CN1CCSC1=NC1CCc2ccccc21 (stereo not given)
55 | 159 to 160 | C=C(C(=O)c1cc(OC)c(OC)c(-c2cccs2)c1)c1ccc(C(=O)O)cc1
56 | 209 to 211 | Nc1nc2ccccc2c2c1ncn2CCCC(=O)c1ccccc1
57 | 80.5 to 82.5 | CCCCCS(=O)(=O)NC(=O)/C=C/c1ccc(Oc2ncccn2)cc1Oc1ncc(C(F)(F)F)cc1Cl
58 | 175 to 176 | Cc1ccc(S(=O)(=O)N(c2ccc(Cl)cc2C(=O)O)C(C)C)cc1
59 | 126 to 127 | C=C(c1ccc(Br)cc1)c1ccc(N(C)C)cc1
60 | 105 to 107 | COC(=O)c1ccc(C(=S)Nc2ccccc2OC)cc1
61 | 115 | CC(C)(C)OC(=O)N[C@@H](Cc1cscn1)C(=O)O
62 | 215 to 219 | C=CCC(C#N)(c1ccc(F)cc1)c1ccccc1F (stereo not given)
63 | 107 to 108 | CCOC(=O)C1=C(C)NC(=O)N(C(=O)OCC)C1c1cccc([N+](=O)[O-])c1 (stereo not given)
64 | 144 | O=C(Nc1cccc(Oc2ccccc2)c1)c1ccn2c1CSC2c1cccnc1 (stereo not given)
65 | 105 to 109 | CCc1cc2c(cc1CC)C(=O)C(O)=CC2=O
66 | 247 to 249 | COc1cc(-c2nc(-c3ccc(N(C)C)cc3)c(C)s2)cc(OC)c1OC(C)=O
67 | 101 to 102 | O=[N+]([O-])c1cncn1CCO
68 | 125 to 126 | Oc1cccnc1Sc1cccc(Br)c1
69 | 160 | CC(C)(C)CNc1nc(C#N)nc2ccc(OCc3ccccn3)cc12
70 | 233 to 234 | COc1cc(NC(=O)Nc2c(-c3ccccc3Cl)c3cc(C)c(C)cc3n(C)c2=O)cc(OC)c1OC(C)=O
71 | 160 to 162 | N#Cc1c(C(F)(F)C(F)(F)F)nn(-c2c(Cl)cc(C(F)(F)F)cc2Cl)c1N
72 | 177 to 180 | COc1ccc2cc(CC(=O)NO)ccc2c1

Row | melting point [°C] | Structure (SMILES)
73 | 187 to 189 | O=C(NCCCCCCCCn1ccnc1)c1cc2cc(Cl)ccc2[nH]1
74 | 128 to 129 | CN1CCC(Nc2nccc(Oc3ccc(NC(=O)c4cc(F)cc(N5CCOCC5)c4)c4ccccc34)n2)CC1
75 | 128 to 129 | CC(=O)S[C@@H]1CCO[C@@H](/C(C)=C/c2ccc(C(F)(F)F)cc2)O1 (relative stereo)
76 | 141 to 144 | Cc1ccc([C@@H]2c3c(C)c(N4CCC(c5ccc(F)cc5)CC4)c(C)c(C)c3OC2(C)C)cc1
77 | 242 to 244 | CCCCCc1ccc(-c2ccc(-c3nc(N)nc(N)n3)cc2)cc1
78 | 118 to 120 | CCOC(=O)c1ccc(C(=O)CCc2ccc(S(C)(=O)=O)cc2)cc1
79 | 158 to 159 | O=C(O)c1ccc(C(Cl)=C(Cl)Cl)cn1
80 | 226 | CC(C)(C)OC(=O)N1CCC(C2=C(C#N)C(c3cccc4nonc34)c3c[nH]nc3N2)CC1 (stereo not given)
81 | 61 to 64 | COC(=O)Cc1ccc(OCCNC(=O)C2Cc3ccccc3N2S(=O)(=O)c2ccc(-c3cc(C(F)(F)F)ccc3OC)cc2)cc1 (stereo not given)
82 | 93 | O=C1c2cccc([N+](=O)[O-])c2C(=O)N1CCO
83 | 90 | O=C(c1ccc(O)cc1)c1c(-c2ccc(O)cc2)sc2ccccc12
84 | 85 to 95 | CN(CCN1CCOCC1)c1ccc(OCC(=O)N[C@@H](CC(N)=O)C(=O)N[C@@H](Cc2ccccc2)[C@H](O)C(=O)N2CCC[C@H]2C(=O)NC(C)(C)C)cc1
85 | 158 to 160 | O=C(O)CSC(c1ccccc1)(c1ccccc1)c1ccccc1
86 | 195 to 197 | CC(C(=O)O)c1ccc(-c2ccc(O)cc2)c(F)c1 (stereo not given)
87 | 232 to 234 | CCCC(=O)c1cc(C(=O)O)c2cc(Cc3ccc(F)cc3)cnc2c1O
88 | 114 to 115 | COC(=O)CNc1cc(O)c(C(C)=O)c(OC)c1
89 | > 300 | O=[N+]([O-])c1cccc(-c2cc3c(O)ncnc3o2)c1
90 | 281 to 283 | CS(=O)(=O)c1ccc(-c2[nH]c3ccc(Cl)cc3c2-c2ccccc2)cc1
91 | 187 to 188 | COCc1c(C(=O)OC(C)C)ncc2[nH]c3cccc(-c4cccnc4)c3c12
92 | 89 to 90 | CC1=C(C(=C2SCSCS2)c2ccc(C)cc2)CN(C)O1
93 | 78 to 79.5 | Cc1ccc(S(=O)(=O)Nc2ccc(F)cc2)cc1
94 | 135 to 136 | CC1(C)OC(=O)C(Oc2ccccc2)=C1c1ccc(S(C)(=O)=O)cc1
95 | 210 to 211 | Cc1ccc(C2=NNC(=O)CC2)c(O)c1
96 | 250 to 252 | O=S1(=O)N=C(NCCc2ccccc2)Nc2ccc(Cl)cc21

Row | Structure (SMILES) | melting point [°C]
97 | CCN1C(=O)N(SC(Cl)(Cl)Cl)C(=O)C1(C)C | 141 to 142
98 | O=C(Cl)c1ccc(CBr)cc1 | 56 to 58
99 | CNS(=O)(=O)Cc1ccc2[nH]cc(CCN)c2c1 | 179 to 181
100 | CN1C(=O)C(NC(=O)Oc2ccc([N+](=O)[O-])cc2)N=C(c2ccccc2F)c2ccccc21 (stereo not given) | 202 to 204
